Read-outs that look alike come from different tables or passages of the source.
Tests used:
Type in all cases: cell-based
LNCaP/AR cells = assay: Inhibition of proliferation of LNCaP/AR prostate cancer cells (CCK-8)
androgen receptor (AR) [1] = target: T1, androgen receptor (AR) (Homo sapiens, UniProt P10275); assay: Degradation of androgen receptor (AR) protein in VCaP cells by Western blot; conditions: percentage of degraded AR at 100 nM, VCaP cells, 16 h
T1 sequence (P10275 1-920): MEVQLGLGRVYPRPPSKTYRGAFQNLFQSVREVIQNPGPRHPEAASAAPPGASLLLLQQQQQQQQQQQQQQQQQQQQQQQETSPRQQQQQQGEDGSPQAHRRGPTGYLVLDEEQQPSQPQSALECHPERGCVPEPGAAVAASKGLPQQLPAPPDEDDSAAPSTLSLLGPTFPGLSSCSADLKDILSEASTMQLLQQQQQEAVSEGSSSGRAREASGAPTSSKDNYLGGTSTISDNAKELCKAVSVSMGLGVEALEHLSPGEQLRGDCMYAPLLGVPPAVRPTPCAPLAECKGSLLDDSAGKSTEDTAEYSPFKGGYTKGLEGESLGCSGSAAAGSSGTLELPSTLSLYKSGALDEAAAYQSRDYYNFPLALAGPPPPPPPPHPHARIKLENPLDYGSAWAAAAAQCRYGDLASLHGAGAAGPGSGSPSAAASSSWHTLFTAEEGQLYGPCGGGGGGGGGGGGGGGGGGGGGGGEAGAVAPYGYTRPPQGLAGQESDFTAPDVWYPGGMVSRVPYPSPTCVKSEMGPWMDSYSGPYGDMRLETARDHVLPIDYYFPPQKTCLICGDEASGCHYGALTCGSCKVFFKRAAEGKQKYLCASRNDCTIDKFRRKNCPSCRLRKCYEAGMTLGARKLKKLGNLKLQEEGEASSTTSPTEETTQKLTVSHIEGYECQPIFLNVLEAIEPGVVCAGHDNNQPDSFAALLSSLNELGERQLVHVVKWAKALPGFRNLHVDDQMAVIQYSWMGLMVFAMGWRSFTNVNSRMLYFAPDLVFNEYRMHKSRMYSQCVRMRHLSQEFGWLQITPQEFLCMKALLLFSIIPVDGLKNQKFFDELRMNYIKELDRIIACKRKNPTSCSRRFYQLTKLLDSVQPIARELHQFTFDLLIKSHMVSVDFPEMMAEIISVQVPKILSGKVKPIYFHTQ
Method in brief: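 VCaP cells (5×10^5/well) were seeded overnight, then treated in duplicate for 16 h with compound in 0.1% DMSO final. Lysates (30 μg protein) were immunoblotted for AR (D6F11) with β-actin as loading control, detected by ECL chemiluminescence.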

androgen receptor (AR) [2] = target: T1, androgen receptor (AR); assay: Degradation of androgen receptor (AR) protein in VCaP cells by ELISA; conditions: for inhibition at 0.1 µM: 16 h, read-out: % degradation
[3] = 144 h, proliferation of LNCap/AR cells, 6 days, CCK-8, read-out: IC50
[4] = percentage of degraded AR at 100 nM, VCaP cells, ELISA
[5] = proliferation of LNCap/AR cells, 6 days, CCK-8, read-out: IC50

**Q.** Which IC50 (LNCaP/AR cells; LNCaP/AR, 144 h) does the source give for `CC1(C)[C@H](Oc2ccc(C#N)c(Cl)c2)C(C)(C)[C@H]1N1Cc2cc(N3CCC(CN4CCN(c5ccc6c(c5)CN(C5CCC(=O)NC5=O)C6=O)CC4)CC3)ccc2C1=O` (stereo partly shown) [Compound 248] here?
**A.** 100 to 500 nM

**Q.** And the inhibition at 0.1 µM (androgen receptor (AR) [1])?
**A.** < 25%

**Q.** Which IC50 (LNCaP/AR cells; [3]) does the source give for `N#Cc1ccc(O[C@H]2CC[C@H](N3Cc4nc(N5CCC(OC6CCN(c7cccc8c7C(=O)N(C7CCC(=O)NC7=O)C8=O)CC6)CC5)ccc4C3=O)CC2)cc1Cl` (stereo partly shown) [Compound 59, 2-chloro-4-(((1r,4r)-4-(2-(4-((1-(2-(2,6-dioxopiperidin-3-yl)-1,3-dioxoisoindolin-4-yl)piperidine-4-yl)oxy)piperidin-1-yl)-5-oxo-5H-pyrrolo[3,4-b]pyridin-6(7H)-yl)cyclohexyl)oxy)benzonitrile] here?
**A.** > 1000 nM

**Q.** And the inhibition at 0.1 µM (androgen receptor (AR) [1])?
**A.** < 25%

**Q.** What about the inhibition at 0.1 µM (androgen receptor (AR) [2]; [4]) of the same molecule?
**A.** < 25%

**Q.** What does the source list for `N#Cc1ccc(OC2C[C@@H]3CN(C(=O)c4ccc(N5CCC(CN6CCN(c7ccc8c(c7)C(=O)N(C7CCC(=O)NC7=O)C8=O)CC6)CC5)nn4)C[C@@H]3C2)cc1Cl` (stereo partly shown) [Compound 218]?
**A.** IC50 (LNCaP/AR cells; [3]): > 1000 nM; inhibition at 0.1 µM (androgen receptor (AR) [1]): < 25%

**Q.** For `CC1(C)C(Oc2ccc(C#N)c(Cl)c2)C(C)(C)C1N1Cc2nc(N3CCC(CN4CCN(c5cc6c(cc5F)CN([C@@H]5CCC(=O)NC5=O)C6=O)CC4)CC3)ccc2C1=O` (stereo partly shown) [Compound 211], which IC50 (LNCaP/AR cells; [5]) is on record?
**A.** 100 to 500 nM

**Q.** What about the “% degradation” value (androgen receptor (AR) [1]) of the same molecule?
**A.** D (<25%)

**Q.** Which IC50 (LNCaP/AR cells; [3]) does the source give for `CC1(C)[C@H](Oc2ccc(C#N)c(Cl)c2)C(C)(C)[C@H]1N1Cc2cc(N3CCC(CN4CCN(c5cc6c(cc5F)C(=O)N(C5CCC(=O)NC5=O)C6)CC4)CC3)ccc2C1=O` (stereo partly shown) [Compound 251] here?
**A.** 100 to 500 nM

**Q.** And the inhibition at 0.1 µM (androgen receptor (AR) [1])?
**A.** 25 to 49%

**Q.** Which IC50 (LNCaP/AR cells; [3]) does the source give for `CC1(C)[C@H](Oc2ccc(C#N)c(Cl)c2)C(C)(C)[C@H]1N1Cc2cc(N3CCC(CN4CCN(c5ccc6c(c5)C(=O)N(C5CCC(=O)NC5=O)C6=O)CC4)CC3)ccc2C1=O` (stereo partly shown) [Compound 249] here?
**A.** 100 to 500 nM

**Q.** And the inhibition at 0.1 µM (androgen receptor (AR) [1])?
**A.** < 25%

**Q.** Which IC50 (LNCaP/AR cells; LNCaP/AR, 144 h) does the source give for `N#Cc1ccc(O[C@H]2CC[C@H](NC(=O)c3ccc(N4CCC(NC5CCN(c6cc7c(cc6F)C(=O)N(C6CCC(=O)NC6=O)C7=O)CC5)CC4)cc3)CC2)cc1Cl` (stereo partly shown) [Compound 219, N-((1r,4r)-4-(3-chloro-4-cyanophenoxy)cyclohexyl)-4-(4-((1-(2-(2,6-dioxopiperidin-3-yl)-6-fluoro-1,3-dioxoisoindolin-5-yl)piperidine-4-yl)amino)piperidin-1-yl)benzamide] here?
**A.** 500 to 1000 nM

**Q.** What about the inhibition at 0.1 µM (androgen receptor (AR) [1]) of the same molecule?
**A.** 25 to 49%

**Q.** What does the source list for `CC1(C)[C@H](Oc2ccc(C#N)c(Cl)c2)C(C)(C)[C@H]1N1Cc2cc(N3CCC(CN4CCN(c5cc6c(cc5F)CN([C@@H]5CCC(=O)NC5=O)C6=O)CC4)CC3)ccc2C1=O` [Compound 250]?
**A.** IC50 (LNCaP/AR cells; [5]): 100 to 500 nM; % degradation (androgen receptor (AR) [1]): D (<25%); % degradation (androgen receptor (AR) [2]): D (key: A: >80%; B: 79%-50%; C: 49%-25%; D: <25%)

**Q.** Which results are given for `[2H]C([2H])([2H])N(C(=O)c1ccc(C#CCCCCOCC(=O)N[C@H](C(=O)N2C[C@H](O)C[C@H]2C(=O)N[C@@H](C)c2ccc(-c3scnc3C)cc2)C(C)(C)C)cc1)[C@H]1C(C)(C)[C@H](Oc2ccc(C#N)c(Cl)c2)C1(C)C` [Compound 23]?
**A.** IC50 (LNCaP/AR cells; [3]): < 100 nM; inhibition at 0.1 µM (androgen receptor (AR) [2]; [4]): 25 to 49%

**Q.** How did the IC50 (LNCaP/AR cells; [3]) turn out when `CC1(C)[C@H](Oc2ccc(C#N)c(Cl)c2)C(C)(C)[C@H]1N1Cc2nc(N3CCC(CN4CCN(c5cc6c(cc5F)CN(C5CCC(=O)NC5=O)C6=O)CC4)CC3)ccc2C1=O` (stereo partly shown) [Compound 205] was run?
**A.** < 100 nM

**Q.** What about the inhibition at 0.1 µM (androgen receptor (AR) [1]) of the same molecule?
**A.** < 25%

**Q.** What does the source list for `CC(=O)O[C@@H]1C[C@@H](C(=O)N[C@@H](CO)c2ccc(-c3scnc3C)cc2)N(C(=O)[C@@H](NC(=O)COCCCCC#Cc2ccc3c(c2)CN([C@H]2C(C)(C)[C@H](Oc4ccc(C#N)c(Cl)c4)C2(C)C)C3=O)C(C)(C)C)C1` [Compound 49, (3R,5S)-1-((S)-2-(2-((6-(2-(((1r,3r)-3-(3-chloro-4-cyanophenoxy))-2,2,4,4-tetramethylcyclobutyl)-1-oxoisoindolin-5-yl)hex-5-yn-1-yl)oxy)acetamido)-3,3-dimethylbutyryl)-5-(((R)-2-hydroxy-1-(4-(4-methylthiazol-5-yl)phenyl)ethyl)carbamoyl)pyrrolidin-3-yl acetate]?
**A.** IC50 (LNCaP/AR cells; LNCaP/AR, 144 h): < 100 nM; inhibition at 0.1 µM (androgen receptor (AR) [2]; [4]): 25 to 49%

**Q.** What does the source list for `Cc1ncsc1-c1ccc([C@@H](C)NC(=O)[C@H]2C[C@@H](O)CN2C(=O)[C@H](NC(=O)COCCCCCNc2ccc(C(=O)NC3C[C@]4(C)O[C@@]3(C)[C@@H]3C(=O)N(c5ccc(C#N)c(Cl)c5)C(=O)[C@@H]34)c(F)c2)C(C)(C)C)cc1` (stereo partly drawn) [Compound 20, (2R,4S)-1-((2R)-2-(2-((5-((4-(((3aS,4S,7S,7aR)-2-(3-chloro-4-benzonitrile)-4,7-dimethyl-1,3-dioxooctahydro-1H-4,7-epoxyisoindolin-5-yl)carbamoyl)-3-fluorophenyl)amino)pentyl)oxy)acetylamino)-3,3-dimethylbutyryl)-4-hydroxy-N-((R)-1-(4-(4-methylthiazol-5-yl)phenyl)ethyl)pyrrolidine-2-carboxamide]?
**A.** IC50 (LNCaP/AR cells; LNCaP/AR, 144 h): < 100 nM; inhibition at 0.1 µM (androgen receptor (AR) [2]; VCaP): 25 to 49%

**Q.** `CC1(C)[C@H](NC(=O)c2ccc(N3CCC(CN4CCN(c5cc6c(cc5F)CN(C5CCC(=O)NC5=O)C6=O)CC4)CC3)nc2)C(C)(C)[C@H]1Oc1ccc(C#N)c(Cl)c1` (stereo partly shown) [Compound 214] was tested. Which IC50 (LNCaP/AR cells; [3]) did it give?
**A.** < 100 nM

**Q.** What about the inhibition at 0.1 µM (androgen receptor (AR) [1]) of the same molecule?
**A.** 50 to 79%

Source: patent publication US20230091225A1, “Bifunctional chimeric heterocyclic compounds for targeted degradation of androgen receptors and use thereof” (HINOVA PHARMACEUTICALS INC., priority 2019, published 2023)
